Measured values: patent publication US9295714B2, “Apparatus and method for transdermal delivery of parathyroid hormone agents” (Alza Corporation, priority 2004, dated 2016)

How the values were obtained:
[1] = Solubility in water; assay type: physicochemical; details: at pH 5
From the text: Referring now to FIG. 10, there is shown a superposition of the mole ratios for acetic acid and the neutral form of hPTH (1-34). […] At pH 5, negligible amounts of PTH are present as PTH zero net charge (PTH 0). The PTH is also highly soluble in water at concentrations in excess of 20%. During drying and subsequent storage, the free acetic acid will evaporate inherently resulting in formation of the water insoluble PTH 0. Subsequent reconstitution in water will not allow total solubilization of PTH. Accordingly, the use of a low volatility counterion provides a solid soluble formulation of PTH as long as the pH is maintained at least 2.5 pH units, preferably 3 pH units, below the pI of PTH. Preferably, this can be achieved by providing at least about two low volatility counterions to each molecule of PTH.

[2] = system: urinary cAMP; assay: Urinary cAMP excretion after subcutaneous vs transdermal delivery; assay type: in vivo, human
Method: (§1) In this example, transdermal delivery of a PTH-based agent using a coated microprojection member was compared to conventional, subcutaneous delivery of teriparatide PTH (Forteo™). A dose-finding study was conducted with […], young females that received two treatments, separated by at least five days, according to randomly assigned sequence of 20 μg subcutaneous delivery of Forteo™ and 30 μg transdermal delivery of a PTH-based agent by coated microprojection. Bioavailability of transdermally delivered PTH was determined in 20 healthy, young females by administering two treatments, separated by at least five day, according to randomly assigned sequence of 40 μg subcutaneous delivery of Forteo™ and 30 μg transdermal delivery of a PTH-based agent by coated microprojection.
FIG. 12 further reflects a preferred pulsatile concentration profile of the PTH agent, i.e., rapid on-set and rapid off-set after reaching Cmax.

[3] = Plasma PTH after subcutaneous Forteo vs coated microprojection transdermal delivery; assay type: in vivo, human
Method: as §1
In the dose-finding study, two participants dropped out, eleven subjects participated and eight generated usable data. It was determined that three subjects had measurable PTH plasma levels following subcutaneous injection and eight subjects had measurable PTH plasma levels following transdermal delivery.

[4] = Pharmacokinetics of hPTH (1-34) after IV, SC and coated microprojection array administration; assay type: in vivo, hairless guinea pig; details: for dose absorbed/delivered: AUC relative to IV

SMILES: CC[C@H](C)[C@H](NC(=O)[C@H](CCC(=O)O)NC(=O)[C@H](CO)NC(=O)[C@@H](NC(=O)[C@@H](N)CO)C(C)C)C(=O)N[C@@H](CCC(N)=O)C(=O)N[C@@H](CC(C)C)C(=O)N[C@@H](CCSC)C(=O)N[C@@H](Cc1cnc[nH]1)C(=O)N[C@@H](CC(N)=O)C(=O)N[C@@H](CC(C)C)C(=O)NCC(=O)N[C@@H](CCCCN)C(=O)N[C@@H](Cc1cnc[nH]1)C(=O)N[C@@H](CC(C)C)C(=O)N[C@@H](CC(N)=O)C(=O)N[C@@H](CO)C(=O)N[C@@H](CCSC)C(=O)N[C@@H](CCC(=O)O)C(=O)N[C@@H](CCCN=C(N)N)C(=O)N[C@H](C(=O)N[C@@H](CCC(=O)O)C(=O)N[C@@H](Cc1c[nH]c2ccccc12)C(=O)N[C@@H](CC(C)C)C(=O)N[C@@H](CCCN=C(N)N)C(=O)N[C@@H](CCCCN)C(=O)N[C@@H](CCCCN)C(=O)N[C@@H](CC(C)C)C(=O)N[C@@H](CCC(N)=O)C(=O)N[C@@H](CC(=O)O)C(=O)N[C@H](C(=O)N[C@@H](Cc1cnc[nH]1)C(=O)N[C@@H](CC(N)=O)C(=O)N[C@@H](Cc1ccccc1)C(=O)O)C(C)C)C(C)C [hPTH (1-34)]
- solubility in water (concentration) [1]: > 20%
- biological activity as evidenced by urinary cAMP excretion [2]: comparable to that following subcutaneous delivery
- subjects with measurable PTH plasma levels ([3]; bioavailability study, subcutaneous delivery (Forteo 40 μg), 20 subjects completed): 15 subjects
- subjects with measurable PTH plasma levels ([3]; bioavailability study, transdermal delivery 30 μg, 20 subjects completed): 20 subjects
- subjects with measurable PTH plasma levels ([3]; dose-finding study, subcutaneous injection (Forteo 20 μg), eight with usable data): three
- subjects with measurable PTH plasma levels ([3]; dose-finding study, transdermal delivery 30 μg, eight with usable data): eight
- Fraction dose absorbed/delivered (%) ([4]; IV, 22.5 μg, hairless guinea pig): 100%
- dose absorbed/delivered ([4]; SC, 19.5 μg): 8.2 ± 2.9 µg
- dose absorbed/delivered ([4]; microprojection array, 40.0 μg): 6.6 ± 1.8 µg
